Consider one compound from ChEMBL document CHEMBL5518188, “Discovery of 4-amino-1,6-dihydro-7H-pyrrolo[2,3-d]pyridazin-7-one derivatives as potential receptor-interacting serine/threonine-protein kinase 1 (RIPK1) inhibitors” (Eur J Med Chem, 2024).

The source made the active and inactive calls. The rule behind the calls is not given here.

For orientation: EC50 means the concentration that produces a half-maximal response. Read a low EC50 as higher potency in that assay. One may read the CL/F as clearance divided by bioavailability, as obtained after extravascular dosing. As usually defined, the clearance is the volume of plasma or blood freed of the substance per unit of time. Read a high clearance as efficient removal. In general, Kd refers to the equilibrium constant for the complex coming apart. Broadly, the bioavailability is the share of a dose that reaches the circulation, judged against a reference dose that is usually intravenous. The term half-life denotes the time in which the quantity being followed falls by half. A word on the Tmax: it is the time at which the peak concentration occurs.

Data set [1] concerns the target NT-3 growth factor receptor (Homo sapiens) (UniProt Q16288). Kind of data set: Inhibition of TRKC (unknown origin).
For a further data set, the system named is L929. Kind of data set: Anti-necroptosis activity against TSZ-induced mouse L929 cells. Type of data set: functional, cell-based.
Data set [2] in a line: Apparent volume of distribution in BALB/c mouse at 10 mg/kg, po. The class given is ADME, organism-based. Conditions: in vivo.
For data set [3], the target named is Vascular endothelial growth factor receptor 2 (Homo sapiens) (UniProt P35968). Kind of data set: Inhibition of KDR (unknown origin).
Data set [4] addresses T1, Mixed lineage kinase domain-like protein (Homo sapiens) (UniProt Q8NB16).
T1 sequence (whole entry): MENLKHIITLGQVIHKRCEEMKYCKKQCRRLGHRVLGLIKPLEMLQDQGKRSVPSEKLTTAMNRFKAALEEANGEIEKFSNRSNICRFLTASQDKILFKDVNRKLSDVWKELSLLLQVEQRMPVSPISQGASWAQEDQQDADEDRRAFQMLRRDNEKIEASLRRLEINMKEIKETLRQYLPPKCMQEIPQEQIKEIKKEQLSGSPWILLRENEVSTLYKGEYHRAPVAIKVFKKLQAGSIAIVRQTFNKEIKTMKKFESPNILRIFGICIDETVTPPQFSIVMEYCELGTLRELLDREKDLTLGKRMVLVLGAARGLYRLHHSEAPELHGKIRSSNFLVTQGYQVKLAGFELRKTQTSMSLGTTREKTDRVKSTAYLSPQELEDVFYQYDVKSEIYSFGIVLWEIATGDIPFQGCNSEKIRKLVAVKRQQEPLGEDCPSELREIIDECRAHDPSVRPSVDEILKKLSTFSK
The note with it: HT-29, dose 30.0 nM, time 6.0 hrs.

Data set [5] in a line: Clearance in BALB/c mouse at 10 mg/kg, po. The class given is ADME, organism-based. The note with it: BALB/c, in vivo.
The target in data set [6] is Angiopoietin-1 receptor (Homo sapiens) (UniProt Q02763). In words: Inhibition of Tie2 (unknown origin).
The nature of data set [7]: Clearance in BALB/c mouse at 10 mg/kg, iv. The note with it: in vivo. Type of data set: ADME, organism-based.
The target of data set [8] is T2, Receptor-interacting serine/threonine-protein kinase 1 (Homo sapiens) (UniProt Q13546).
T2 sequence (whole entry): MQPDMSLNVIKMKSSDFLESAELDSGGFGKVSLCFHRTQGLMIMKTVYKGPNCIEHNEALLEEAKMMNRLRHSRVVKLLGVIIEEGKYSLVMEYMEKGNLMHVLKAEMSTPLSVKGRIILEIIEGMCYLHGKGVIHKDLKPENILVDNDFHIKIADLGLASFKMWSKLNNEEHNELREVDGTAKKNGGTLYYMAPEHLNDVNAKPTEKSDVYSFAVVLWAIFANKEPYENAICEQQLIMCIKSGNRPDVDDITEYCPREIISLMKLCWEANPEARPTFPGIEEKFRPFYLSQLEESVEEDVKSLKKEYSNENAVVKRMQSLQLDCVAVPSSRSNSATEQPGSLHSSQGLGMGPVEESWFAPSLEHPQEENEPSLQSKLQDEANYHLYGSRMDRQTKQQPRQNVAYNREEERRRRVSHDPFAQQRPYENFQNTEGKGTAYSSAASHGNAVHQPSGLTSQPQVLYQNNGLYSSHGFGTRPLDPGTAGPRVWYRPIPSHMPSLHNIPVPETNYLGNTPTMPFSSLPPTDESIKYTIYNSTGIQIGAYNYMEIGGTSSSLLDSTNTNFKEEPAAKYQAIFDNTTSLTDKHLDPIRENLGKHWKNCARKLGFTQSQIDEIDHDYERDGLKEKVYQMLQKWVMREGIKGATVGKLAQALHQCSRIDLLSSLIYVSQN
The note with it: HT-29, dose 3.0 nM, time 6.0 hrs.

Data set [9] addresses T3, Mixed lineage kinase domain-like protein (Homo sapiens, UniProt Q8NB16).
T3 sequence (Q8NB16 whole entry): T1 sequence (whole entry)
In words: Binding affinity to MLKL (unknown origin) assessed as dissociation constant.

Data set [10] addresses T1, Mixed lineage kinase domain-like protein (Homo sapiens). Conditions: HT-29, dose 300.0 nM, time <= 6.0 hrs, TDE = time-dependent effect.
Description: Inhibition of MLKL phosphorylation in TSZ-induced human HT-29 cells at 300 nM by Western blot analysis
Data set [11] is described as follows: Oral bioavailability in BALB/c mouse at 10 mg/kg. The class given is ADME, organism-based. Conditions: BALB/c, in vivo.
A short description of data set [12]: Metabolic stability in cryopreserved human liver microsome assessed as half life. Type of data set: ADME. The note with it: cryopreserved liver microsomes.
A short description of data set [13]: Tmax in BALB/c mouse at 10 mg/kg, po. Conditions: in vivo. Type of data set: ADME, organism-based.

Sequence of NT-3 growth factor receptor (Homo sapiens) (Q16288 32-839 limits assumed): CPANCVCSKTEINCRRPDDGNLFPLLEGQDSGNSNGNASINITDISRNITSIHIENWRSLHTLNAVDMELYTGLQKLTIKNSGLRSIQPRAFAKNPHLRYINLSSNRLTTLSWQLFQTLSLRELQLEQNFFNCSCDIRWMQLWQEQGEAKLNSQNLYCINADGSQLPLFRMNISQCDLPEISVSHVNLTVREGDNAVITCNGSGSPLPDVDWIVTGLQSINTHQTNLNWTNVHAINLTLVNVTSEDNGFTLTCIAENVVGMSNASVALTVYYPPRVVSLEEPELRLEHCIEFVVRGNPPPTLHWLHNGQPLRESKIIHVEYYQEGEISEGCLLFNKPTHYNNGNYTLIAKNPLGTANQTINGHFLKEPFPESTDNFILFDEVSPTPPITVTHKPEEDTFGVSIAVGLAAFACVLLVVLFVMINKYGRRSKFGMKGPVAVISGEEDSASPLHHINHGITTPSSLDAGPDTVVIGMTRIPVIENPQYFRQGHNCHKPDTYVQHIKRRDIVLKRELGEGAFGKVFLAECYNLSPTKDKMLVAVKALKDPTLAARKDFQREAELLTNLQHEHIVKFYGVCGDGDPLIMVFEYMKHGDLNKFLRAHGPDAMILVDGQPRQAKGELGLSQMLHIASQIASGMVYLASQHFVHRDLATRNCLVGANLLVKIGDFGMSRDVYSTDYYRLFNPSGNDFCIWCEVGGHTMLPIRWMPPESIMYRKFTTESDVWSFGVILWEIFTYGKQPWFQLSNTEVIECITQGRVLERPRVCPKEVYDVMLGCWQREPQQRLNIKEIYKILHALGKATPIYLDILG
Sequence of Angiopoietin-1 receptor (Homo sapiens) (Q02763 whole entry): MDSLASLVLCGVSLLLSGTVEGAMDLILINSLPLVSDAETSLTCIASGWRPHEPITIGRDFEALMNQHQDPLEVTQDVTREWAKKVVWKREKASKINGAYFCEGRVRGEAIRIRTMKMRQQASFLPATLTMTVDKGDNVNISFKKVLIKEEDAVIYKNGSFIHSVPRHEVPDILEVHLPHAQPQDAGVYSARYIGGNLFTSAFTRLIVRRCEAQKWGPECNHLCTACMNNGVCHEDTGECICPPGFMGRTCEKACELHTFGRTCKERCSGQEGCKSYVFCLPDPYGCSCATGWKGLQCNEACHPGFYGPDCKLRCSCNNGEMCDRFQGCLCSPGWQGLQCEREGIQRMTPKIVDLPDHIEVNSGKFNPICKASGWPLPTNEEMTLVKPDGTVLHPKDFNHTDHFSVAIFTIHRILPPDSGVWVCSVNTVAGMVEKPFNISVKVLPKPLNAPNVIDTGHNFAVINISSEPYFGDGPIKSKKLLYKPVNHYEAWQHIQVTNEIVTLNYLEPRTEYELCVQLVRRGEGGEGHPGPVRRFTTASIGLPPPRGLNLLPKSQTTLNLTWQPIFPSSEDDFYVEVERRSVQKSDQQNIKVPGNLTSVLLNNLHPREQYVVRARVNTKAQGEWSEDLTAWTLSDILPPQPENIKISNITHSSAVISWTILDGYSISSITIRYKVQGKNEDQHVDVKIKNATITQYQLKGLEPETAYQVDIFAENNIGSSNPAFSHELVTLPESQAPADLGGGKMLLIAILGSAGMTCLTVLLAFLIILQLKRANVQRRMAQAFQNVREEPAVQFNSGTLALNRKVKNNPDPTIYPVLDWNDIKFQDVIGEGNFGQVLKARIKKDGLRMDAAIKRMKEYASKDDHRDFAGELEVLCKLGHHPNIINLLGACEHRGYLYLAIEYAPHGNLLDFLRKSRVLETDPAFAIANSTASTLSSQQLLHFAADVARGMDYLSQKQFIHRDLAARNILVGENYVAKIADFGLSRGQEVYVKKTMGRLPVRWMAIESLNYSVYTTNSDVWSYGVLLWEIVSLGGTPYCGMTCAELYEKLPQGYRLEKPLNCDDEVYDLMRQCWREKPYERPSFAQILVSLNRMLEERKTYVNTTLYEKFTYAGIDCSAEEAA
Sequence of Vascular endothelial growth factor receptor 2 (Homo sapiens) (P35968 whole entry, the tested form may be a part): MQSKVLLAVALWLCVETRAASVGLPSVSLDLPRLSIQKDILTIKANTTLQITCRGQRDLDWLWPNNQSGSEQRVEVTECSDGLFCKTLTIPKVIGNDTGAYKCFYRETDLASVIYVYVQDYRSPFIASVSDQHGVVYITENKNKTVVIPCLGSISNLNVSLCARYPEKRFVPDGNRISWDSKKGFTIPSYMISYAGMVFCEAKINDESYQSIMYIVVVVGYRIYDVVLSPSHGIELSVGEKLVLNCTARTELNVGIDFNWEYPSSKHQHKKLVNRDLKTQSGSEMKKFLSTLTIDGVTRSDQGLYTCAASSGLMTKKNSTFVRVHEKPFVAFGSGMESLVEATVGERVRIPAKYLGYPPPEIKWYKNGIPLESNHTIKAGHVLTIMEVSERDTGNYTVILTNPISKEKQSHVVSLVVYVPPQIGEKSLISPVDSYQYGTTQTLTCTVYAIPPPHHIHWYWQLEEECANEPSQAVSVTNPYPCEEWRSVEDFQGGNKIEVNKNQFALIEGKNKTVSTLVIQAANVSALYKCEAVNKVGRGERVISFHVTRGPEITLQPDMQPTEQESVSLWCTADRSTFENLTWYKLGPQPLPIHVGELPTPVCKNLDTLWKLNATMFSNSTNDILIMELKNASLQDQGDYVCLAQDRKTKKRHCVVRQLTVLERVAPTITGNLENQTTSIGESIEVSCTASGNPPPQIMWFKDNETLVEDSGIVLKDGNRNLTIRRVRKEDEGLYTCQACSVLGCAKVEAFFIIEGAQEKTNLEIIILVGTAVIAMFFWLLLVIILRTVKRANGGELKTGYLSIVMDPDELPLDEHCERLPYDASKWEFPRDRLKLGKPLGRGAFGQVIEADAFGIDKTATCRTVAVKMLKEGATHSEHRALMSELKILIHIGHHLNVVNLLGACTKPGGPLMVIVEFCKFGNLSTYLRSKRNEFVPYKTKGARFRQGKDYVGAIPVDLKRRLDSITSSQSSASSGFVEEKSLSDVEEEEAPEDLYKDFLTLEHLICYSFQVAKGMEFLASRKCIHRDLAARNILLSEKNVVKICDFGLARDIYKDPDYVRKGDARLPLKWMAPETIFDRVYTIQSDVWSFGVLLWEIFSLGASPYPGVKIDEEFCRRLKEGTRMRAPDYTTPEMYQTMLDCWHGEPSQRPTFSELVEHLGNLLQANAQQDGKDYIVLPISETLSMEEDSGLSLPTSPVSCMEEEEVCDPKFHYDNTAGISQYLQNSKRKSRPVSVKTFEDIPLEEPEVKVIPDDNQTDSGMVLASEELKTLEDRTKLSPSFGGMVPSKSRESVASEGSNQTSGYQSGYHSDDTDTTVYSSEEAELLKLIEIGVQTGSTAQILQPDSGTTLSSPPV

Turning to `CC1(Cn2cc(-c3ccc4c(c3)CCN4C(=O)Cc3cccc(OC(F)(F)F)c3)c3c(N)n[nH]c(=O)c32)COC1`, the inhibition entry in [1], in data set [3] and in data set [6] was “Active” each time. The same compound gave a concentration giving a half-maximal response (EC50) in the data set with L929 of 1.06 nM. For the same compound, the Vz in data set [2] is 1.24 L/kg. The inhibition result was “Dose-Dependent Effect” in data set [4], “Dose-Dependent Effect” in data set [8] and “Tde” in data set [10]. Moreover, the apparent clearance CL/F in [5] was 17.3 mL/min/kg. Also, in data set [7], the clearance was 17.3 mL/min/kg. Also, in data set [9], the Kd was above 30 µM. For the same compound, in [11], the bioavailability turned out to be 59.5%. Moreover, the half-life in [12] was 75.3 min. Also, the time of peak concentration (Tmax) in data set [13] is 4.8 min.
